From article PMC4325551, “Inhibition of Rat 5α-Reductase Activity and Testosterone-Induced Sebum Synthesis in Hamster Sebocytes by an Extract of Quercus acutissima Cortex” (Evidence-based Complementary and Alternative Medicine : eCAM, 2015)

Experiments:
[1] = target: T1, rat liver microsomal 5α-reductase (Rattus norvegicus, UniProt P24008); assay: 5α-reductase assay using rat liver microsomes (testosterone metabolism, HPLC and TLC); assay type: biochemical; conditions: for inhibition of 5α-reductase activity: at 10 and 100 μmol/L; for Inhibitory activity on 5α-reductase (% of control) / IC50: testosterone 3.5 μmol/L, 30 min, rat liver microsomes 40 μg/mL, HPLC; for Inhibitory activity on 5α-reductase (% of control): mean ± SEM, N = 3; for effect on 5α-reductase activity: examined at 0.1, 1, 10, and 100 μmol/L
T1 construct: The reaction was started with the addition of liver microsomes (20 μg protein); from tissue; host or cells: liver microsomes of male Sprague–Dawley rats
T1 sequence (P24008 1-259): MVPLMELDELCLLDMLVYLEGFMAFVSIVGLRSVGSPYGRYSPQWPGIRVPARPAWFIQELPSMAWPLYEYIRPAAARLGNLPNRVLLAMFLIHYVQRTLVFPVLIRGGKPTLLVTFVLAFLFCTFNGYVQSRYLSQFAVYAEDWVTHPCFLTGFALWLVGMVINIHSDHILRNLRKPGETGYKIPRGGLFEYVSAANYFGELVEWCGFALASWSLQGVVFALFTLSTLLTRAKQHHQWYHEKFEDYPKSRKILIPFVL
Experimental: Rat liver microsomes were prepared by the method of Lee et al.. Male Sprague–Dawley rats (body weight, 300 to 320 g; Clea Japan, Tokyo, Japan) were fasted overnight to decrease the concentration of liver glycogen and then sacrificed. The liver was excised and washed in ice-cold homogenizing buffer containing 0.32 mol/L sucrose, 1 mmol/L dithiothreitol (Wako Pure Chemical Industries), and 20 mmol/L potassium phosphate, pH 6.5. The following procedures were all carried out at 4°C. The tissue was minced with a pair of scissors and then homogenized in homogenizing buffer using a Potter-Elvehjem grinder. The homogenate was then centrifuged at 10 000 g for 10 min. The resulting pellet was washed with two pellet volumes of homogenizing buffer and centrifuged again. The supernatants from the two centrifugations were combined and further centrifuged at 105 000 g for 1 h. The resulting pellet (microsomes) was suspended in homogenizing buffer and centrifuged again. The microsomes were resuspended in homogenizing buffer. The microsome suspension was divided into small aliquots and stored at −80°C. The microsomes were diluted with 40 mmol/L potassium phosphate, pH 6.5, immediately before use. Unlike human liver, rat liver microsomes have the 5α-R1 but not the 5α-R2 isoform.
Briefly, the reaction solution was preincubated with or without a test sample in 1 mmol/L dithiothreitol, 40 mmol/L potassium phosphate, pH 6.5, 100 μmol/L NADPH (Oriental Yeast, Tokyo, Japan), and 3.5 μmol/L testosterone (Wako Pure Chemical Industries) in a final volume of 0.5 mL for 20 min at room temperature. The reaction was started with the addition of liver microsomes (20 μg protein). After incubation at 37°C for 30 min, the reaction solution was extracted with 2 mL ethyl acetate. The ethyl acetate phase (upper phase) was transferred to a tube and evaporated using a centrifugal concentrator (Tomy Seiko, Tokyo, Japan). Testosterone and the metabolites were measured by two chromatography methods, HPLC (Shimadzu, Kyoto, Japan) and TLC.
The residue was dissolved in acetonitrile and analyzed using the HPLC system. The reverse-phase HPLC analysis was performed on a C18 column (3.0 × 150 mm, GL Science, Japan) at a column oven temperature of 50°C and UV detection of 240 nm. The isocratic mobile phase of acetonitrile/water (50 : 50, v/v) was flowed at 0.4 mL/min through the column.
To detect the steroids by TLC, the residue containing steroids was taken up in ethanol and chromatographed on a TLC plate (Silica gel 60 F254, Merck, Darmstadt, Germany), using ethyl acetate-hexane (1 : 1, v/v) as the developing solvent system at room temperature. Testosterone, (Tokyo Chemical Industry Co., Tokyo, Japan) and 5α-androstane-3α,17β-diol (Sigma-Aldrich) were applied to TLC as androgen standards. The plate was exposed to 10% sulfuric acid using an atomizer and then heated on a hot plate. The fluorescent signals were visualized by irradiation of UV light at 302 nm using a ChemiDoc XRS Plus (BIO-RAD, Hercules, CA).

[2] = tested on: primary hamster sebocytes (Ha-SE); assay: cell cytotoxicity (XTT) in undifferentiated hamster sebocytes; conditions: 0.2% triton X-100, 24 h in the presence of EGF
Experimental: Four Figures and Two Tables
Hamster-derived sebaceous gland cells (Ha-SE) were precultured until confluent in the presence of 10 ng/mL epidermal growth factor (EGF), and further cultured with 10, 30 […]
vehicle in the presence of EGF. Twenty four hours later, cell cytotoxicity was measured […]
Fig. S2. Bioconversion of exogenous dihydrotestosterone to 5α-androstane-3,17-diol by rat liver microsomal enzymes […]
min in the presence or absence of rat liver microsomes (40 μg/mL) and the co-factors.
The metabolites were extracted with ethyl acetate after incubation, and analyzed by TLC. All androgen standards were applied at 0.1 μg/μL/spot. T.: testosterone, DHT: dihydrotestosterone, A.diol: 5α-androstane-3α,17β-diol

Molecule | inhibition of 5α-reductase activity [1] | Inhibitory activity on 5α-reductase (% of control) ([1]; test sample 0.1 μmol/L) | Inhibitory activity on 5α-reductase (% of control) ([1]; test sample 1 μmol/L) | Inhibitory activity on 5α-reductase (% of control) ([1]; test sample 10 μmol/L) | Inhibitory activity on 5α-reductase (% of control) ([1]; test sample 100 μmol/L) | IC50 [1] [µM] | effect on 5α-reductase activity [1] | cytotoxicity [2]
O=C(O[C@H]1[C@@H]2OC(=O)c3cc(O)c(O)c(O)c3-c3c(cc(O)c(O)c3O)C(=O)OC[C@H]2OC(O)[C@@H]1OC(=O)c1cc(O)c(O)c(O)c1)c1cc(O)c(O)c(O)c1 (stereo partly drawn) [1-Desgalloyl eugeniin, 1-desgalloyl eugeniin] | more than 50% | 4.6 ± 0.2 % of control | 9.2 ± 1.6 % of control | 52.5 ± 2.4 % of control | 107.9 ± 0.9 % of control | 12.6 | – | –
Oc1cc(O)c2c(c1)O[C@H](c1ccc(O)c(O)c1)[C@@H](O)C2 [(+)-catechin] | – | – | – | – | – | – | did not show any effect | –
Oc1cc(O)c2c(c1)O[C@H](c1cc(O)c(O)c(O)c1)[C@@H](O)C2 [(+)-gallocatechin, (+)-Gallocatechin] | – | – | – | – | – | – | did not show any effect | –
O=C1c2c(O)cc(O)cc2O[C@H](c2ccc(O)c(O)c2)[C@H]1O [(+)-taxifolin] | – | – | – | – | – | – | did not show any effect | –
O=C(O[C@@H]1Cc2c(O)cc(O)cc2O[C@@H]1c1ccc(O)c(O)c1)c1cc(O)c(O)c(O)c1 [(−)-Epicatechin gallate, (−)-epicatechin gallate] | more than 50% | 4.6 ± 0.2 % of control | 4.9 ± 0.2 % of control | 5.9 ± 0.3 % of control | 69.4 ± 1.2 % of control | 10 to 100 | – | –
O=C(O[C@@H]1Cc2c(O)cc(O)cc2O[C@@H]1c1cc(O)c(O)c(O)c1)c1cc(O)c(O)c(O)c1 [(−)-Epigallocatechin gallate, (−)-epigallocatechin gallate] | more than 50% | 3.7 ± 0.1 % of control | 4.4 ± 0.4 % of control | 5.3 ± 0.3 % of control | 58.6 ± 2.7 % of control | 10 to 100 | – | –
Oc1cc(O)c2c(c1)O[C@@H](c1cc(O)c(O)c(O)c1)[C@H](O)C2 [(−)-gallocatechin] | – | – | – | – | – | – | did not show any effect | –
O=C1OC[C@H]2OC(=O)c3cc(O)c(O)c(O)c3-c3c(O)c(O)c(O)c4c3C(=O)O[C@H]([C@H]3OC(=O)c5c-4c(O)c(O)c(O)c5[C@H]3O)[C@@H]2OC(=O)c2cc(O)c(O)c(O)c2-c2c1cc(O)c(O)c2O [Castalagin, castalagin] | more than 50% | 4.9 ± 0.5 % of control | 6.3 ± 1.2 % of control | 70.7 ± 3.2 % of control | 113.3 ± 7.6 % of control | 8 | – | –
O=C(O[C@@H]1COC(=O)c2cc(O)c(O)c(O)c2-c2c(cc(O)c(O)c2O)C(=O)O[C@H]1[C@@H]1OC(=O)c2cc(O)c(O)c(O)c2-c2c(O)c(O)c(O)c3c2C(=O)O[C@H]1[C@@H]3O)c1cc(O)c(O)c(O)c1 [Casuarinin, casuarinin] | more than 50% | 6.4 ± 1.4 % of control | 10.8 ± 0.7 % of control | 59.0 ± 2.0 % of control | 110.1 ± 0.5 % of control | 10.5 | – | –
O=C(O[C@@H]1O[C@@H]2COC(=O)c3cc(O)c(O)c(O)c3-c3c(cc(O)c(O)c3O)C(=O)O[C@H]2[C@H](OC(=O)c2cc(O)c(O)c(O)c2)[C@H]1OC(=O)c1cc(O)c(O)c(O)c1)c1cc(O)c(O)c(O)c1 [Eugeniin, eugeniin] | more than 50% | 4.2 ± 1.0 % of control | 13.9 ± 0.5 % of control | 62.5 ± 0.6 % of control | 114.6 ± 0.6 % of control | 10.9 | – | –
O=C(OC[C@H]1OC(O)[C@@](O)(COC(=O)c2cc(O)c(O)c(O)c2)[C@@H]1O)c1cc(O)c(O)c(O)c1 (stereo partly drawn) [Hamamelitannin, 2′,5-di-O-galloyl hamamelose] | – | – | – | – | – | – | did not show any effect | –
O=C(OC[C@H]1OC(OC(=O)c2cc(O)c(O)c(O)c2)[C@H](OC(=O)c2cc(O)c(O)c(O)c2)[C@@H](OC(=O)c2cc(O)c(O)c(O)c2)[C@@H]1O)c1cc(O)c(O)c(O)c1 (stereo partly drawn) [Tetragalloyl glucose, 1,2,3,6-tetra-O-galloyl glucose] | more than 50% | 3.3 ± 0.5 % of control | 18.7 ± 0.4 % of control | 63.2 ± 3.0 % of control | 102.8 ± 1.2 % of control | 8.1 | – | –
COc1cc2ccc(=O)oc2c(O[C@@H]2O[C@H](CO)[C@@H](O)[C@H](O)[C@H]2O)c1O [fraxin] | – | – | – | – | – | – | did not show any effect | –
O=C(O)c1cc(O)c(O)c(O)c1 [gallic acid, Gallic acid] | – | – | – | – | – | – | did not show any effect | –
COC(=O)c1cc(O)c(O)c(O)c1 [methyl gallate] | – | – | – | – | – | – | did not show any effect | –
stenophyllanin C | more than 50% | 5.6 ± 0.6 % of control | 4.6 ± 0.5 % of control | 63.1 ± 0.4 % of control | 102.3 ± 2.2 % of control | 7.2 | – | –
triton X-100 [reference compound] | – | – | – | – | – | – | – | significant cytotoxicity
